Measurements reported in patent publication US20230293524A1, “OTIC FORMULATIONS FOR DRUG-INDUCED OTOTOXICITY” (Spiral Therapeutics Inc, priority 2019, published 2023).
Read-outs that look alike come from different tables or passages of the source.

Assays:
[1] = tested on: spiral ganglion neurons (SGNs); test: Cochlear explant model: spiral ganglion neuron protection against cisplatin; type: cell-based, Sprague-Dawley rats; conditions: 1.5 hour pretreatment followed by co-treatment at different concentrations with 10 μM cisplatin
From the text: (§1) For hair cell and spiral ganglion assessment, postnatal Sprague-Dawley rats (P2-P4) of both sexes are anesthetized with isoflurane and decapitated. Temporal bones are removed and transferred to a cell culture dish with ice-cold Ca^2+/Mg^2+-containing phosphate-buffered saline (PBS; Invitrogen) or cold HBSS medium enriched with glucose. Under microscopic visualization, the cochlear capsules are carefully removed from the temporal bone using forceps and transferred to a new cell culture dish containing ice-cold PBS. The cochleae are then dissected from the cochlear capsule using fine forceps. The stria vascularis is removed from the cochlear tissue and discarded. Dissected cochlear epithelia are transferred to permeable membrane inserts (Millicell organotypic culture plate inserts, Millipore) which are placed into 1 mL of culture media (Dulbecco's modified Eagle's medium (high glucose, Glutamax, 25 mM HEPES) with 10% fetal bovine serum, 1% N2 supplement and 10 units/ml penicillin) in a 6-well plate. Up to 4 cochleae are placed onto each membrane. Explants are placed in a humidified chamber with 5% CO2 at 37° C. for a minimum of 18 hours prior to treatment. Cultures are then pre-treated with test compounds and returned to the incubator for a period of 10 minutes to 48 hours.
(§2) Following the incubation period, cochlear samples are fixed in 4% paraformaldehyde for a minimum of 30 minutes after treatment then permeabilized in 0.5% Triton in PBS (PBST) for 1 hour, followed by overnight incubation at 4° C. in primary antibodies in 10% goat or donkey serum (Sigma). Samples are then rinsed in PBST 2 times for 10 minutes each then incubated in alexa-488 conjugated secondary antibodies for 2 hours at room temperature or overnight at 4° C. in 10% goat or donkey serum (Sigma). Samples are then rinsed 2 times in PBS then incubated in DAPI (1:3000) in PBS for 5 minutes prior to mounting on slides. To evaluate the otoprotective efficacy of the compounds, cochlear samples are immunostained using combination of antibodies generated against markers specific for hair cells (Myosin V1, Myosin VIIA, Parvalbumin, etc.), SGNs (TUJ1, Neurofilament, etc.), f-actin, cell death, cell stress, etc. as well as a nuclear stain to identify cell nuclei.
(§3) Immunostained samples are mounted on glass slides and imaged with an LSM880 laser scanning confocal microscope (Zeiss) or an Operetta high-content imager (Perkin Elmer). The entire explant is imaged for all antibody and nuclear labeling in a 3-dimensional X-Y-Z plane in which the Z-plane consists of a stack imaged at intervals of 0.5-5 μm. The total length of the organ of Corti in each explant is then determined and is divided into 4 equal length regions. Basal, middle and apical hair cells or SGNS are counted at the regions approximately 25%, 50% or 75% of the total cochlear length from the base, respectively. Hair cell survival is determined by counting the number of inner and outer hair cells at these three different regions (base, middle and apex) in each cochlear explant and determining the number of missing/dead hair cells per cochlear region. Hair cell counts are obtained by placing a 200 μm length scale bar parallel to the rows of hair cells at each region and manually counting the total number of outer hair cells (OHCs) and inner hair cells (IHCs) within the 200 μm. Similarly, to evaluate the health and survival of SGNs, the density of SGN fibers or soma is also determined per region by manual counting for same region selected for counting hair cells. Nuclear staining is analyzed to confirm the presence or absence of cell nuclei and to evaluate nuclear health. Image analysis and quantification is performed using Zeiss Zen Blue software, or Perkin Elmer Columbus software.
(§4) Neonatal (P2-P4) Sprague-Dawley rats were used for the experiments described here. Animals were euthanized following anesthesia using isoflurane. Rat cochleae were then dissected in cold HBSS medium enriched with glucose. […]

[2] = Cisplatin binding, % bound
[3] = tested on: outer hair cells (OHCs) and inner hair cells (IHCs); test: Cochlear explant model: hair cell protection against cisplatin; type: cell-based, Sprague-Dawley rats; conditions: for protection of hair cells against cisplatin: 1.5 hour pretreatment followed by co-treatment at different concentrations with 10 μM cisplatin; for EC100: Rattus norvegicus, read-out: Ex-vivo Efficacy Conc. for complete protection of hair cells (uM)
From the text: as §1, §2, §3, §4

[4] = Cisplatin reaction kinetics by HPLC; conditions: 50 μM cisplatin + 50 μM of compound (API) in PBS, pH 7.4, 37° C.
Procedure: Reaction kinetics between Cisplatin and the compound of interest (nucleophile) were monitored by high performance liquid chromatography. Isocratic separation was achieved using a Waters Spherisorb C8 column (4×250 mm, 5 μm, 80 Å). The flow rate was set to 1.00 mL/min. The mobile phase consisted of 5 mM Sodium Octanesulfonate+5 mM Tetrabutyl Ammonium Hydrogen Sulfate+20 mM Potassium Dihydrogen Phosphate adjusted to pH 5.9. Detection was performed at a wavelength of 210 nm.
Reactions were conducted at equimolar concentrations in buffered aqueous media and held at 37° C. Rate constants (k) were determined by monitoring the disappearance of Cisplatin as a function of time.

[5] = Pharmacokinetic study after intratympanic administration; type: in vivo, rats
Procedure: Female rats (Charles River) weighing 200-300 g of approximately 12-16 weeks of age served as subjects (N=4 per group). Prior to any procedures, animals were anesthetized using a combination of xylazine (10 mg/kg), ketamine (50 mg/kg), and acepromazine (1 mg/kg) for up to an hour via the intraperitoneal route. If needed, an intraoperative booster was administered intraperitoneal representing a one-tenth of the original dose.
Intratympanic injection—Each animal was positioned so that the head was tilted at an angle to favor injection towards the round window niche. […] Formulations were delivered using a perfusion pump at the rate of 2 μL/sec. Contact with the round window membrane was maintained for 30 minutes by placing the animal in a recumbent position. During the procedure and until recovery, animals were placed on a temperature controlled (40° C.) heating pad until consciousness was regained at which time they were returned to the vivarium.
Perilymph sampling procedure—The skin behind the ear of anesthetized rats was shaved and disinfected with povidone-iodine. An incision was then made behind the ear, and muscles were carefully retracted from over the bulla. A hole was drilled through the bulla using a dental burr so that the middle ear was exposed and accessed. The cochlea and the round window membrane were visualized under a stereo surgical microscope. The basal turn of bulla was cleaned by using small cotton ball. A unique microhole was hand drilled through the bony shell of the cochlea (cochlear capsule) adjacent to the round window. Perilymph (about 2 μL) was then collected using a microcapillary inserted into the cochlear scala tympani. Perilymph samples were added to a vial containing 18 μL of acetonitrile/water, stored at −80° C. until analysis.
Cochlear epithelium sampling procedure—Under a dissection scope, the bulla was opened, and the cochlea was exposed by removing all surrounding muscles, blood vessels and bone tissues. Holding the bulla, the cochlear wall bony structure was removed working from the base to the apex of the cochlea, exposing the organ of Corti. The exposed cochlear epithelium was gently dabbed with cotton swab to remove excess of liquid from tissue, carefully transferred to labelled tube. Each 2-mL plastic tube that contained acid washed 2.8 mm stainless steel beads was pre-weighed. The tubes were reweighed after adding cochlea epithelium and weights were recorded. All cochlea epithelium samples were placed in dry ice immediately after collection and stored at −80° C. prior to analysis.
Plasma sampling procedure—Blood samples were collected by cardiac puncture into labeled micro-tubes, containing lithium heparin as anticoagulant. Plasma were immediately harvested from the blood by centrifugation and collection for supernatants. All plasma samples were stored at −80° C. prior to analysis.
Samples were extracted by protein precipitation, then vortexed and centrifuged. The supernatant was collected and diluted with two folds of water. A high-performance liquid chromatography system (Agilent 1200 series) with Waters Cortecs C18 Plus column (50*4.6 mm, 2.7 μm) were used. The flow rate was set at 0.700 mL/min. A gradient method with an analytical run time of 5 minutes was used. Mobile phase A consisted of 0.01% ammonium formate, 0.03% formic acid in water. Mobile phase B consisted of 0.01% ammonium formate, 0.03% formic acid in acetonitrile: methanol (70:30, v/v). The gradient began with 30% B, stepped to 70% B at 2.75 minutes and held for 1 minute and then stepped back to 30% B to re-equilibrate the column.
Ionizations and detection of analyte and internal standard were performed on a triple quadruple mass spectrometer, API 5500 Q-Trap equipped with Turbo IonSpray@, from SCIEX (Toronto, Canada). Electro spray ionization (ESI) mass spectra was operated in the positive ion mode. Carbutamide was used as the internal standard (IS). […]

[6] = Rat cisplatin IP PK study, total platinum by ICP-MS; type: in vivo; conditions: for Cmax: read-out: Cmax concentrations in perilymph and cochlear tissues
Procedure: Total platinum level in samples were analyzed by a qualified inductively coupled plasma mass spectrometric detection (ICP-MS) developed in QPS (Netherlands Lab). Ruthenium were used as internal standard. A flow injection analysis (FIA) method was used to using HPLC pump to introduce samples and internal standard into the systems but without HPLC column. The ICP-quadrupole-MS of Perkin Elmer Sciex Elan 6100 ICP-MS System equipped with a peristaltic pump, nebulizer, spray chamber, and quartz torch were used in platinum analyses.
Sample transport from the autosampler to the nebulizer was performed using a peristaltic pump. The instrument was cooled by using argon gas of 99.999% purity. Data were acquired and processed using the Analyst 1.6. The instrument settings of the ICP-MS had the following operating parameters: ICP radio frequency (RF) power, 1500 W; RF matching, 1.80 V; sampling depth, 8.0 mm; carrier gas, 0.90 L/min; makeup gas, 0.21 L/min; nebulizer pump, 0.10 rps; He gas, 4.5 mL/min; extract 1, 0.0 V; extract 2, −120.0 V; cell entrance, −30 V; cell exit, −30 V; QP bias, −16.0 V; Octp bias, −20.0 V.
The mass to charge ratio is determined by the detector. […] Electronic signals were compared to the standardized curve generated from ultra-high purity platinum samples and solvents. Accounting for dilutions, comparison of the sample signal to the standardized curve will allow for the determination of the original total platinum concentration.
Intraperitoneal injection—The lower right quadrant of the abdomen was shaved and disinfected with alcohol and then povidone iodine. Animals were placed in a supine position and the hind legs were lifted at a 40-degree angle in order to move the abdominal organs towards the diaphragm. A 1″ 23G needle or larger was inserted into the abdominal cavity, directed towards the animal's head, at a 15-20-degree angle and inserted approximately 5 mm. […] After removal of the syringe from the peritoneal cavity, triple antibiotic was placed on the injection site to help prevent infection. During the procedure and until recovery, animals were placed on a temperature controlled (40° C.) heating pad until consciousness was regained at which time they were returned to the vivarium.
Protocol: 3 animals per group at time points. Group A: 30 min, 1 hr, 2 hr, 6 hr, 1 day, 3 day, 7 day, 28 day. Group B: 30 min, 1 hr, 2 hr, 6 hr, 1 day, 3 day. Bioanalysis: Plasma, Perilymph, Cochlear epithelium, CSF. Bioanalytical Method: Total Platinum by ICP-MS.

[7] = intraperitoneal (IP) administration

With `Sc1ncnc2nc[nH]c12` [6-mercaptopurine] the “protection of spiral ganglion neurons against cisplatin” value (from here on “protection of spiral ganglion neurons”) [1] was “near complete protection”, the “Cisplatin Binding % bound (in 30 min) at 1:10 ratio” value [2] was 60% and the “protection of hair cells against cisplatin” value [3] was “complete protection”. For the same molecule, the EC100 [3] was 50 to 100 µM.
In the case of `Nc1nc2c(ncn2[C@@H]2O[C@H](CO)[C@@H](O)[C@H]2O)c(=S)[nH]1` [6-thioguanosine], the “protection of spiral ganglion neurons” value [1] is reported as “near complete protection”, the “protection of hair cells against cisplatin” value [3] is reported as “complete protection” and the EC100 [3] is reported as 50 to 100 µM.
`COc1cc(=O)[nH]c(=S)[nH]1` [6-methoxy-2-thiouracil] gave an EC100 [3] of 50 to 100 µM.
In the case of `CSCC[C@@H](N)C(=O)O` [D-methionine, reference compound], the “k” value [4] is reported as 0.07 M⁻¹ s⁻¹, the “In vivo PK in Cochlear Epithelium (24 h after dosing)” value [5] is reported as roughly 200 ng/gm CE and the “Cisplatin Binding % bound (in 30 min) at 1:10 ratio” value [2] is reported as 40%. It also gave an EC100 [3] of 10000 µM.
For `CSC[C@H]1O[C@@H](n2cnc3c(N)ncnc32)[C@H](O)[C@@H]1O` [5-Deoxy-5-methylthioadenosine], the “Ex-vivo Efficacy Conc. for complete protection of hair cells (uM)” value ([3]; ex vivo cochlear explants, cisplatin) was “No protection”.
For `O=c1cc[nH]c(=S)[nH]1` [Compound 2-thiouracil, 2-thiouracil], the “k” value [4] was 0.15 M⁻¹ s⁻¹ and the EC100 [3] was 50 to 100 µM.
In the case of `CC(=O)c1c[nH]c(=S)n(-c2ccc(C)cc2)c1=O` [5-acetyl-3-(p-tolyl)-2-thiouracil], the EC100 [3] is reported as 500 µM and the “potency on HC protection” value ([3]; ex-vivo cochlear explants, comparison of thiouracils) is reported as “lower potency”.
In the case of `O=S(=O)(O)CCS` [MESNA, reference compound], the “k” value [4] is reported as 0.05 M⁻¹ s⁻¹.
With `Nc1nc2c(ncn2[C@H]2C[C@H](O)[C@@H](CO)O2)c(=S)[nH]1` [6-thio-2′-deoxy guanosine] the “protection of spiral ganglion neurons” value [1] was “near complete protection”, the “Cisplatin Binding % bound (in 30 min) at 1:10 ratio” value [2] was 50% and the “protection of hair cells against cisplatin” value [3] was “complete protection”. The EC100 [3] was 100 µM.
With `CCCc1cc(=O)[nH]c(=S)[nH]1` [OMY-141, 6-propyl-2-thiouracil] the “k” value [4] was 10.27 M⁻¹ s⁻¹, the “In vivo PK in Cochlear Epithelium (24 h after dosing)” value [5] was roughly 300 ng/gm CE and the “plasma exposure after IT injection” value ([5]; single IT injection) was “some plasma exposure”. For the same molecule, the “perilymph and cochlear epithelium exposure after IT injection” value ([5]; single IT injection, MCT and/or poloxamer formulation) was “good perilymph and cochlear epithelium exposure”, the “Cisplatin Binding % bound (in 30 min) at 1:10 ratio” value [2] was 95% and the “protection of hair cells against cisplatin” value [3] was “complete protection”. For the same molecule, the EC100 [3] was 50 to 100 µM.
In the case of `Nc1nc2nc[nH]c2c(=S)[nH]1` [6-thioguanine], the “protection of spiral ganglion neurons” value [1] is reported as “near complete protection”, the “Cisplatin Binding % bound (in 30 min) at 1:10 ratio” value [2] is reported as 80% and the “protection of hair cells against cisplatin” value [3] is reported as “complete protection”. The EC100 [3] was 50 to 100 µM.
In the case of `N.N.[Cl][Pt][Cl]` [cisplatin], the “Cmax concentrations in perilymph and cochlear tissues” value ([6]; dosed at 10 mg/kg IP) is reported as 700 to 750 ng/mL, the Cmax ([6]; dosed at 10 mg/kg IP) is reported as 2300 to 2500 nM and the “Cmax concentrations in perilymph and cochlear tissues” value ([6]; dosed at 12 mg/kg IP) is reported as 700 to 900 ng/mL. For the same molecule, the Cmax ([6]; dosed at 12 mg/kg IP) was 2300 to 3000 nM, the “time of peak cisplatin levels in cochlear tissues” value [6, 7] was 6 h and the “time of peak cisplatin levels in perilymph” value [6, 7] was no more than 30 min.
